In patent US9382254B2, “Compounds and pharmaceutical compositions thereof for the treatment of cystic fibrosis” (Galapagos NV, priority 2013, dated 2016):
pEC50: −log10 of the molar value.

Assays:
Type in all cases: cell-based
CFTR ΔF508 mutant [1] = target: T1, CFTR ΔF508 mutant (Homo sapiens, UniProt P13569, DEL508-508); experiment: YFP-halide influx assay for the CFTR-ΔF508 mutation, gluconate buffer; details: CFBE41o- cells, forskolin 10.67 μM
T1 construct: expressed in transfected cells; host or cells: CFBE41o- (adenoviral transduction)
Method in brief: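 Channel opening is read as the fall in YFP fluorescence over 7 s following iodide injection, expressed as 1-F/F0 and plotted versus compound concentration to derive EC50. Cells used were CFBE41o- expressing adenoviral ΔF508 CFTR and halide-sensitive YFP, rescued by 24 h at 27 °C or 24 h modulator treatment at 37 °C.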

CFTR ΔF508 mutant [2] = target: T1, CFTR ΔF508 mutant; experiment: YFP-halide influx assay for the CFTR-ΔF508 mutation (384 well, FDSS/μCell); details: CFBE41o- cells, CFTR-ΔF508, 1×D-PBS, fluorescence after 36 seconds
Method in brief: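 Potentiator read-out as 1−F/F0, F taken 36 s after iodide addition, EC50 fitted against compound concentration. Cells: CFBE41o- expressing ΔF508 CFTR plus halide-sensitive YFP via adenovirus, rescued by 27 °C for 24 h or 24 h modulator at 37 °C.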

CFTR G551D mutant = target: T2, CFTR G551D mutant (Homo sapiens, UniProt P13569, G551D); experiment: YFP-halide influx assay for the CFTR-G551D mutation; details: HEK293 cells, forskolin 10.67 μM
T2 construct: expressed in transfected cells; host or cells: HEK293 (reverse transfection with plasmid)
Method in brief: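 Channel opening potentiation measured as 1−F/F0, where F is YFP fluorescence 7 s after iodide injection and F0 before; EC50 taken from concentration plot. Cells: HEK293 transiently expressing CFTR G551D plus halide-sensitive YFP (H148Q, I152L, F47L), 24 h at 37 °C, 5% CO2.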

CFTR ΔF508 mutant [3] = target: T1, CFTR ΔF508 mutant; experiment: YFP-halide influx assay for the CFTR-ΔF508 mutation, PBS buffer (96 well); details: CFBE41o- cells, forskolin 10.67 μM
Excerpt: The YFP halide influx assay measures the functionality of the cystic fibrosis Transmembrane Conductance regulator (CFTR) channels in the cystic fibrosis bronchial epithelium cell line CFBE41o-. The assay is used to evaluate the capacity of compounds to increase the open probability of existing CFTR channels in the membrane. It makes use of the observation that the yellow fluorescent protein (YFP) variant YFP H148Q, I152L has its fluorescence substantially quenched by halide ions like Cl^− and I^−. (Galietta, Haggie, & Verkman, 2001) (Nagai, et al., 2002)
For this purpose, CFBE41o-cells are seeded in 96 well plates (6000 CFBE cells/well). One day after seeding, the CFBE cells are transduced with adenoviral vectors that direct the expression of the CFTR ΔF508 mutant and of the YFP reporter. Cells are incubated at 27° C., 5% CO2 for 24 hours so as to allow for the proper folding and migration to the membrane of the CFTR channel or treated with a CFTR modulator during 24 hours at 37° C.
The I^− induced quenching of fluorescence is recorded immediately after injection of I^− for 7 seconds. The capacity of a compound to increase the channel opening is directly correlated with the decrease in fluorescence, and is expressed as (1-(fluorescence after 7 seconds (F)/fluorescence before injection (F0))) and an EC50 can be derived from a (1-F/F0) vs compound concentration plot.

T2 sequence (P13569 whole entry G551D): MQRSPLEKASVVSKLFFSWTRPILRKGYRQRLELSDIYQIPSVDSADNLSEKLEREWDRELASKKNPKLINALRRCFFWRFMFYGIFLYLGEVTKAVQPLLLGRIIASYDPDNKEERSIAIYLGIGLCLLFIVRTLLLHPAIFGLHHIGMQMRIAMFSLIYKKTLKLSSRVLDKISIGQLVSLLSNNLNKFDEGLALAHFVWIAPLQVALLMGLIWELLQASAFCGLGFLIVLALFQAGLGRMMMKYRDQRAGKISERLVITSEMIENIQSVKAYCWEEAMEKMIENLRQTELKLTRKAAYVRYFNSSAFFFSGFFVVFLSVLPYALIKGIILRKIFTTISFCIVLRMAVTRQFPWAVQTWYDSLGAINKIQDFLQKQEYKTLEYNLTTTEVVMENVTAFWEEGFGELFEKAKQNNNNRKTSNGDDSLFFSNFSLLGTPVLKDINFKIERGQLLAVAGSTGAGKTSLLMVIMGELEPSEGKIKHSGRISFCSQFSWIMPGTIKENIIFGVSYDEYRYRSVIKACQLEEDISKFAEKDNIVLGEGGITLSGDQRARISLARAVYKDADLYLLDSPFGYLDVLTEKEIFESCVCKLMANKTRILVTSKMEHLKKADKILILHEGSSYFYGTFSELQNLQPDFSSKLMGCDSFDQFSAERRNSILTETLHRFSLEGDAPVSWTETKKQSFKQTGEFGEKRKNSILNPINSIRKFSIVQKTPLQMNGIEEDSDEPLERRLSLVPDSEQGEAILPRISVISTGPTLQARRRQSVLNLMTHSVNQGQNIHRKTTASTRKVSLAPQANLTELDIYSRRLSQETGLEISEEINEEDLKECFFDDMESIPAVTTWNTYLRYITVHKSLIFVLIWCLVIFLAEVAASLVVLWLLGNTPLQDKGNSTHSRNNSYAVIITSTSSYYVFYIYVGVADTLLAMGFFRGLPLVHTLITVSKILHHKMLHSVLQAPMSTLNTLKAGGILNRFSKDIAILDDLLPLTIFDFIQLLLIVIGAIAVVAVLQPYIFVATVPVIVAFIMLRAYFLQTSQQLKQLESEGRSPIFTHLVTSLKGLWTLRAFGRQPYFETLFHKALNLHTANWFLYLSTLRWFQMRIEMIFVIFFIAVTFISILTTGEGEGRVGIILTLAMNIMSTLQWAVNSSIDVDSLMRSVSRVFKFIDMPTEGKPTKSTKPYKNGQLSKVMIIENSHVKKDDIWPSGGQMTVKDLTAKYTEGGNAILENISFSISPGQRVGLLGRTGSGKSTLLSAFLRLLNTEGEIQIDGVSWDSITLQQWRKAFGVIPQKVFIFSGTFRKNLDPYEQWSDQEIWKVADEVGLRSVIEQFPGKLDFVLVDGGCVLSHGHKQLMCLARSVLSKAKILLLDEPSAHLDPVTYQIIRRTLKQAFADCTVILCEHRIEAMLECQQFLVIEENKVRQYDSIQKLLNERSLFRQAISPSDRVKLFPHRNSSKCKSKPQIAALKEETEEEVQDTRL
T1 sequence (P13569 with tags, fused parts or gaps DEL508-508): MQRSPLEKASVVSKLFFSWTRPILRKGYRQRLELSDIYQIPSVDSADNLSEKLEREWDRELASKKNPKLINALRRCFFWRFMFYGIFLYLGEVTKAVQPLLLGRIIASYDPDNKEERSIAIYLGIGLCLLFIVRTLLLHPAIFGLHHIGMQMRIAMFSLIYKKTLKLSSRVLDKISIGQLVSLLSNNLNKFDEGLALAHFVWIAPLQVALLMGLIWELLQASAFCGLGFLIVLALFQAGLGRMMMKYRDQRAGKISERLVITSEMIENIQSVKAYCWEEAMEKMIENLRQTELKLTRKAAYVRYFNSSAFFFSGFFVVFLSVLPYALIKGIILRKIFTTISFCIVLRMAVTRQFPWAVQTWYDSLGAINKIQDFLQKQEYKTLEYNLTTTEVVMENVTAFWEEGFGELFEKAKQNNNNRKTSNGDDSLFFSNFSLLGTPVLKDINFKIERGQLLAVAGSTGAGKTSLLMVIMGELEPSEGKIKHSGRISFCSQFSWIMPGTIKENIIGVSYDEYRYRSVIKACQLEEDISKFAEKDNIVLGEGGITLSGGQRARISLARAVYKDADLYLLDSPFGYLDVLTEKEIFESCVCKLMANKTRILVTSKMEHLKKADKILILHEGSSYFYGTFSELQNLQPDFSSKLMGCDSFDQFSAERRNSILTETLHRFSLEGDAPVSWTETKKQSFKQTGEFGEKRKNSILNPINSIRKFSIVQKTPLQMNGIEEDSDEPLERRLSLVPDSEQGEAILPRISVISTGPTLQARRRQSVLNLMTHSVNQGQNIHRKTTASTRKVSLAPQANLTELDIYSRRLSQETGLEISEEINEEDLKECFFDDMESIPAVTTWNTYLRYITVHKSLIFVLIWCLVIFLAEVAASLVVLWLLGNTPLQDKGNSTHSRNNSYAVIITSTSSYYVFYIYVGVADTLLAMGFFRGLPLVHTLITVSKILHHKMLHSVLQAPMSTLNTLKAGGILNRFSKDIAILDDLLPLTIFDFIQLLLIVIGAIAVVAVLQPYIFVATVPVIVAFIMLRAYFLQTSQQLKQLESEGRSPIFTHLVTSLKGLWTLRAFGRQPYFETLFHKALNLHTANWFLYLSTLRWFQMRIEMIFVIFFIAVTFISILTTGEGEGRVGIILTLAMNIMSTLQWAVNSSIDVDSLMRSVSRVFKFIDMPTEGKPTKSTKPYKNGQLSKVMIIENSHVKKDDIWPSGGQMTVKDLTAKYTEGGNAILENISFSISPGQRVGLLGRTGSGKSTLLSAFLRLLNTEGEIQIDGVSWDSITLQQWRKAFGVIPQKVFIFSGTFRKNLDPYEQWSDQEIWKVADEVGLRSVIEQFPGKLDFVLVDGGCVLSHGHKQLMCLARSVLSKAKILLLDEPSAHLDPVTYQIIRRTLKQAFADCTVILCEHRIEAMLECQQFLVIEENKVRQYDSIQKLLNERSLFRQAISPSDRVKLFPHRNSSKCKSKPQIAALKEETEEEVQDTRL

| Compound | pEC50 (CFTR ΔF508 mutant [1]) | pEC50 (CFTR ΔF508 mutant [2]) | pEC50 (CFTR G551D mutant) | pEC50 (CFTR ΔF508 mutant [3]) |
| --- | --- | --- | --- | --- |
| NC(=O)c1cc(S(=O)(=O)N2CCC(F)(F)CC2)sc1NC(=O)c1cc[nH]n1 [Compound 140, N-(3-carbamoyl-5-(4,4-difluoropiperidin-1-ylsulfonyl)thiophen-2-yl)-1H-pyrazole-3-carboxamide] | 7.53 | 7.99 | 7.17 |  |
| CCc1cc(C(=O)Nc2sc(S(=O)(=O)N3CCC(F)(F)CC3)cc2C(N)=O)n[nH]1 [Compound 141, N-(3-carbamoyl-5-(4,4-difluoropiperidin-1-ylsulfonyl)thiophen-2-yl)-5-ethyl-1H-pyrazole-3-carboxamide] | 7.53 | 7.01 | 6.59 |  |
| CC(C)(C)c1cc(C(=O)Nc2sc(S(=O)(=O)N3CCC(F)(F)CC3)cc2C(N)=O)n[nH]1 [Compound 142, 5-tert-butyl-N-(3-carbamoyl-5-(4,4-difluoropiperidin-1-ylsulfonyl)thiophen-2-yl)-1H-pyrazole-3-carboxamide] | 7.15 | 6.53 | 6.27 |  |
| NC(=O)c1cc(S(=O)(=O)N2CCOCC2)sc1NC(=O)c1ccccc1O [Compound 143, 2-(2-Hydroxy-benzoylamino)-5-(morpholine-4-sulfonyl)-thiophene-3-carboxylic acid amide] | 7.53 | 7.57 | 6.64 |  |
| CN(Cc1ccc(F)cc1)S(=O)(=O)c1cc(C(N)=O)c(NC(=O)c2cc[nH]n2)s1 [Compound 145, 1H-Pyrazole-3-carboxylic acid {3-carbamoyl-5-[(4-fluoro-benzyl)-methyl-sulfamoyl]-thiophen-2-yl}-amide] | 7.71 | 7.15 | 6.67 |  |
| COCCN(CC(F)(F)F)S(=O)(=O)c1cc(C(N)=O)c(NC(=O)c2ccccc2F)s1 [Compound 157, 2-(2-fluorobenzamido)-5-(N-(2-methoxyethyl)-N-(2,2,2-trifluoroethy)sulfamoyl) thiophene-3-carboxamide] | 7.06 | 7.22 | 6.62 |  |
| CN(Cc1ccc(F)cc1F)S(=O)(=O)c1cc(C(N)=O)c(NC(=O)c2cc[nH]n2)s1 [Compound 172, N-(3-carbamoyl-5-(N-(2,4-difluorobenzyl)-N-methylsulfamoyl)thiophen-2-yl)-1H-pyrazole-3-carboxamide] | 7.81 | 7.38 | 6.86 |  |
| NC(=O)c1cc(S(=O)(=O)N2CCC(F)(F)CC2)sc1NC(=O)c1ccccc1O [Compound 190, 5-(4,4-difluoropiperidin-1-ylsulfonyl)-2-(2-hydroxybenzamido)thiophene-3-carboxamide] | 7.13 | 7.08 | 6.56 |  |
| NC(=O)c1cc(S(=O)(=O)N(Cc2ccc(F)cc2)C2CC2)sc1NC(=O)c1cc[nH]n1 [Compound 191, N-(3-carbamoyl-5-(N-cyclopropyl-N-(4-fluorobenzyl)sulfamoyl)thiophen-2-yl)-1H-pyrazole-3-carboxamide] | 7.05 | 6.70 | 6.61 |  |
| CN(CC1CC1)S(=O)(=O)c1cc(C(N)=O)c(NC(=O)c2cc[nH]n2)s1 [Compound 193, N-(3-carbamoyl-5-(N-(cyclopropylmethyl)-N-methylsulfamoyl)thiophen-2-yl)-1H-pyrazole-3-carboxamide] | 6.94 | 7.31 | 6.69 |  |
| CC(C)S(=O)(=O)c1cc(C(N)=O)c(NC(=O)c2ccccc2O)s1 [Compound 197, 2-(2-hydroxybenzaido)-5-(isopropylsulfonyl) thiophene-3-carboxamide] | 7.04 | 7.61 | 6.80 |  |
| NC(=O)c1cc(S(=O)(=O)N2CCOCC2)sc1NC(=O)c1ccc(F)cc1O [Compound 198, 2-(4-fluoro-2-hydroxybenzamido)-5-(morpholinosulfonyl)thiophene-3-carboxamide] | 7.01 | 7.69 | 6.87 |  |
| CC(C)N(C)S(=O)(=O)c1cc(C(N)=O)c(NC(=O)c2cc[nH]n2)s1 [Compound 210, N-(3-carbamoyl-5-(N-isopropyl-N-methylsulfamoyl)thiophen-2-yl)-1H-pyrazole-3-carboxamide] | 7.13 | 7.87 | 6.33 |  |
| COCCC(=O)Nc1sc(S(=O)(=O)c2ccc(F)cc2)cc1C(N)=O [Compound 229, 5-(4-fluorophenylsulfonyl)-2-(3-methoxypropanamido) thiophene-3-carboxamide] |  |  |  | 5.51 |
| NC(=O)c1cc(S(=O)(=O)c2ccc(F)cc2)sc1NC(=O)c1cccnc1F [Compound 230, N-(3-carbamoyl-5-(4-fluorophenylsulfonyl)thiophen-2-yl)-2-fluoronicotinamide] |  |  |  | 6.01 |
| CC1COCC(C)N1S(=O)(=O)c1cc(C(N)=O)c(NC(=O)C2(O)CC2)s1 (stereo not drawn) [Compound 234, 5-(3,5-dimethylmorpholinosulfonyl)-2-(1-hydroxycyclopropanecarboxamido) thiophene-3-carboxamide] |  |  |  | 6.55 |
| CC1CN(S(=O)(=O)c2cc(C(N)=O)c(NC(=O)C3(O)CC3)s2)CC(C)O1 (stereo not drawn) [Compound 238, 5-(2,6-dimethylmorpholinosulfonyl)-2-(1-hydroxycyclopropanecarboxamido) thiophene-3-carboxamide] |  |  |  | 6.65 |
| COC1CCN(S(=O)(=O)c2cc(C(N)=O)c(NC(=O)C3(O)CC3)s2)CC1 [Compound 239, 2-(1-hydroxycyclopropanecarboxamido)-5-(4-methoxypiperidin-1-ylsulfonyl)thiophene-3-carboxamide] |  |  |  | 6.53 |
| CC1CN(S(=O)(=O)c2cc(C(N)=O)c(NC(=O)C3(O)CC3)s2)CCO1 (stereo not drawn) [Compound 240, 2-(1-hydroxycyclopropanecarboxamido)-5-(2-methylmorpholinosulfonyl) thiophene-3-carboxamide] |  |  |  | 6.21 |
| CC1(C)COCCN1S(=O)(=O)c1cc(C(N)=O)c(NC(=O)C2(O)CC2)s1 [Compound 241, 5-(3,3-dimethylmorpholinosulfonyl)-2-(1-hydroxycyclopropanecarboxamido) thiophene-3-carboxamide] |  |  |  | 6.61 |
| COC1CN(S(=O)(=O)c2cc(C(N)=O)c(NC(=O)C3(O)CC3)s2)C1 [Compound 243, 2-(1-hydroxycyclopropanecarboxamido)-5-(3-methoxyazetidin-1-ylsulfonyl)thiophene-3-carboxamide] |  |  |  | 5.79 |
| COCCN(C1CC1)S(=O)(=O)c1cc(C(N)=O)c(NC(=O)C2(O)CC2)s1 [Compound 244, 5-(N-cyclopropyl-N-(2-methoxyethyl)sulfamoyl)-2-(1-hydroxycyclopropanecarboxamido) thiophene-3-carboxamide] |  |  |  | 6.82 |
| NC(=O)c1cc(S(=O)(=O)c2ccc(F)cc2)sc1NC(=O)c1cccnn1 [Compound 249, N-(3-carbamoyl-5-(4-fluorophenylsulfonyl)thiophen-2-yl)pyridazine-3-carboxamide] |  |  |  | 5.54 |
| NC(=O)c1cc(S(=O)(=O)c2ccc(F)cc2)sc1NC(=O)c1ccnnc1 [Compound 250, N-(3-carbamoyl-5-(4-fluorophenylsulfonyl)thiophen-2-yl) pyridazine-4-carboxamide] |  |  |  | < 6.00 |
| CC1COCC(C)N1S(=O)(=O)c1cc(C(N)=O)c(NC(=O)c2ccccc2C(F)(F)F)s1 (stereo not drawn) [Compound 259, 5-(3,5-dimethylmorpholinosulfonyl)-2-(2-(trifluoromethyl)benzamido) thiophene-3-carboxamide] |  |  |  | 6.84 |
